Reference: patent US8143393B2, “Substituted 4-amino-pyrrolotriazine derivatives useful for treating hyper-proliferative disorders and diseases associated with angiogenesis” (Bayer HealthCare LLC, priority 2005, dated 2012)

molecular target: T1, FGFR-1 (Homo sapiens, UniProt P11362); experiment: FGFR-1 TR-FRET biochemical assay; conditions: 0.6 uM ATP, 5 nM FGFR1-GST; bounds given in nM
T1 construct: GST; made in house
Summary of the method: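 FGFR1-GST (5 nM) was incubated with poly GT-biotin (25 nM) and 0.6 uM ATP in HEPES pH 7.5/MgCl2 with 1% DMSO for 1 h at room temperature. Phosphorylation was read by LANCE TR-FRET (Eu-anti-pTyr/SA-APC, 665/615 ratio). Percent inhibition was background-corrected against no-ATP wells, with final compound concentrations of 10 μM–0.128 nM.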

T1 sequence (P11362 22-822): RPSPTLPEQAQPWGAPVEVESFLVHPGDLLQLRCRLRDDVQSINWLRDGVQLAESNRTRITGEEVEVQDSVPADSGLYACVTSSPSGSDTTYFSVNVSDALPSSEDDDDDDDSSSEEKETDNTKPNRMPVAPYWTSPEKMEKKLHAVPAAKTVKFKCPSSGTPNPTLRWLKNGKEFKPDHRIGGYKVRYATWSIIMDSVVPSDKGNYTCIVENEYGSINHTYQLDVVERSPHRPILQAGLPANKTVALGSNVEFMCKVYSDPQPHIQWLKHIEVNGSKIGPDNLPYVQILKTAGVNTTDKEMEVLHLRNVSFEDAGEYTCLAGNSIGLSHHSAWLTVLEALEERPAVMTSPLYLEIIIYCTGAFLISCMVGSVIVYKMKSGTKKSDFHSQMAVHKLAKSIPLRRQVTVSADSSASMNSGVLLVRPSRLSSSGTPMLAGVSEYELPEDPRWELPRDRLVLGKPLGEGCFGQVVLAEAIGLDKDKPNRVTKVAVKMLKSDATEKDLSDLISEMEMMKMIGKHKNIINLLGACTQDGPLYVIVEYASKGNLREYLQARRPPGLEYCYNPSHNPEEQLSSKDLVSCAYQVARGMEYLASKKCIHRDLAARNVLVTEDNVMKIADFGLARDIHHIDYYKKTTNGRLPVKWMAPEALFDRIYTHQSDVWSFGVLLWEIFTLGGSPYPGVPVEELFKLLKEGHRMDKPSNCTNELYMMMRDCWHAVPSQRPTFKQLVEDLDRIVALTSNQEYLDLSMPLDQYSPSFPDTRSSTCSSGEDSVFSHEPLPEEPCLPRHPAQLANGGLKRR

IC50 [nM]	Structure (SMILES)
10 to 100	CC(O)c1cc(-c2ccc(NC(=O)Nc3cc(C(F)(F)F)ccc3F)c(F)c2)c2c(N)ncnn12 (stereo not drawn) [Example 252, N-{4-[4-amino-7-(1-hydroxyethyl)pyrrolo[2,1-f][1,2,4]triazin-5-yl]-2-fluorophenyl}-N′-[2-fluoro-5-(trifluoromethyl)phenyl]urea]
10 to 100	CCOCCN1CCC(c2cc(-c3ccc(NC(=O)Nc4cc(C(F)(F)F)ccc4F)c(Cl)c3)c3c(N)ncnn23)CC1 [Example 243, N-(4-{4-amino-7-[1-(2-ethoxyethyl)piperidin-4-yl]pyrrolo[2,1-f][1,2,4]triazin-5-yl}-2-chlorophenyl)-N′-[2-fluoro-5-(trifluoromethyl)phenyl]urea]
< 10	Nc1ncnn2c(C3CCNCC3)cc(-c3ccc(NC(=O)Nc4cc(C(F)(F)F)ccc4F)cc3)c12 [Example 242, N-[4-(4-amino-7-piperidin-4-ylpyrrolo[2,1-f][1,2,4]triazin-5-yl)phenyl]-N′-[2-fluoro-5-(trifluoromethyl)phenyl]urea]
10 to 100	Nc1ncnn2c(C(=O)NCC3CNCCO3)cc(-c3ccc(NC(=O)Nc4cc(C(F)(F)F)ccc4F)c(F)c3)c12 (stereo not drawn) [Example 283, 4-amino-5-{3-fluoro-4-[({[2-fluoro-5-(trifluoromethyl)-phenyl]amino}carbonyl)amino]phenyl}-N-(morpholin-2-ylmethyl)pyrrolo[2,1-f][1,2,4]triazine-7-carboxamide]
> 100	Nc1ncnn2c(CN3CCOCC3)cc(-c3ccc(NC(=O)Nc4ccc(F)cn4)cc3)c12 [Example 55, N-{4-[4-amino-7-(morpholin-4-ylmethyl)pyrrolo[2,1-f][1,2,4]-triazin-5-yl]phenyl}-N′-(5-fluoropyridin-2-yl)urea]
10 to 100	Nc1ncnn2c(CCN3CCCC3)cc(-c3ccc(NC(=O)Nc4cc(C(F)(F)F)ccc4F)c(F)c3)c12 [Example 216, N-{4-[4-amino-7-(2-pyrrolidin-1-ylethyl)pyrrolo[2,1-f][1,2,4]triazin-5-yl]-2-fluorophenyl}-N′-[2-fluoro-5-(trifluoromethyl)phenyl]urea]
< 10	CCc1cccc(NC(=O)Nc2ccc(-c3cc(CN4CCS(=O)(=O)CC4)n4ncnc(N)c34)cc2F)c1 [Example 75, N-(4-{4-amino-7-[(1,1-dioxidothiomorpholin-4-yl)methyl]pyrrolo[2,1-f][1,2,4]triazin-5-yl}-2-fluorophenyl)-N′-(3-ethylphenyl)urea]
> 100	CC(C)(C)OC(=O)N1CCC(c2cc(-c3ccc(NC(=O)Nc4cc(C(F)(F)F)ccc4F)c(F)c3)c3c(N)ncnn23)C1 (stereo not drawn) [Example 198, tert-butyl 3-{4-amino-5-[3-fluoro-4-({[2-fluoro-5-(trifluoromethyl)phenyl]carbamoyl}amino)phenyl]pyrrolo[2,1-f][1,2,4]triazin-7-yl}pyrrolidine-1-carboxylate]
< 10	Nc1ncnn2c(CN3CCNC(=O)C3)cc(-c3ccc(NC(=O)Nc4cc(C(F)(F)F)ccn4)cc3)c12 [Example 41, N-(4-{4-amino-7-[(3-oxopiperazin-1-yl)methyl]pyrrolo[2,1-f][1,2,4]triazin-5-yl}phenyl)-N′-[4-(trifluoromethyl)pyridin-2-yl]urea]
< 10	Nc1ncnn2c(CCCN3CCOCC3)cc(-c3ccc(NC(=O)Nc4cc(C(F)(F)F)ccn4)cc3)c12 [Example 107, N-{4-[4-amino-7-(3-morpholin-4-ylpropyl)pyrrolo[2,1-f][1,2,4]triazin-5-yl]phenyl}-N′-[4-(trifluoromethyl)pyridin-2-yl]urea]
10 to 100	Nc1ncnn2c(CCCN3CCOCC3)cc(-c3ccc(NC(=O)Nc4cc(C(F)(F)F)ccc4Cl)c(F)c3)c12 [Example 217, N-{4-[4-amino-7-(3-morpholin-4-ylpropyl)pyrrolo[2,1-f][1,2,4]triazin-5-yl]-2-fluorophenyl}-N′-[2-chloro-5-(trifluoromethyl)phenyl]urea]
10 to 100	Nc1ncnn2c(CN3CCOCC3)cc(-c3ccc(NC(=O)Nc4cccc(C(F)(F)F)c4F)cc3)c12 [Example 58, N-{4-[4-amino-7-(morpholin-4-ylmethyl)pyrrolo[2,1-f][1,2,4]-triazin-5-yl]phenyl}-N′-[2-fluoro-3-(trifluoromethyl)phenyl]urea]
10 to 100	CC(C)(C)OC(=O)N1CCN(Cc2cc(-c3ccc(NC(=O)Nc4cc(C(F)(F)F)ccc4F)c(F)c3)c3c(N)ncnn23)CC1 [Example 82, tert-butyl 4-[(4-amino-5-{3-fluoro-4-[({[2-fluoro-5-(trifluoromethyl)phenyl]amino}carbonyl)amino]phenyl}pyrrolo[2,1-f][1,2,4]triazin-7-yl)methyl]piperazine-1-carboxylate]
< 10	CN(C)CCCc1cc(-c2ccc(NC(=O)Nc3cc(C(F)(F)F)ccc3F)c(F)c2)c2c(N)ncnn12 [Example 194, N-(4-{4-amino-7-[3-(dimethylamino)propyl]pyrrolo[2,1-f][1,2,4]triazin-5-yl}-2-fluorophenyl)-N′-[2-fluoro-5-(trifluoromethyl)phenyl]urea]

More lines, now with the values behind:

Structure (SMILES)	IC50 [nM]
Nc1ncnn2c(C3CCN(C(=O)CO)C3)cc(-c3ccc(NC(=O)Nc4cc(C(F)(F)F)ccc4F)c(F)c3)c12 (stereo not drawn) [Example 204, N-{4-[4-amino-7-(1-glycoloylpyrrolidin-3-yl)pyrrolo[2,1-f][1,2,4]triazin-5-yl]-2-fluorophenyl}-N′-[2-fluoro-5-(trifluoromethyl)phenyl]urea]	< 10
Nc1ncnn2c(CCN3CCOCC3)cc(-c3ccc(NC(=O)Nc4cc(C(F)(F)F)ccc4F)c(F)c3)c12 [Example 212, N-{4-[4-amino-7-(2-morpholin-4-ylethyl)pyrrolo[2,1-f][1,2,4]triazin-5-yl]-2-fluorophenyl}-N′-[2-fluoro-5-(trifluoromethyl)phenyl]urea]	10 to 100
Cc1cc(-c2cc(CCCN3CCOCC3)n3ncnc(N)c23)ccc1NC(=O)Nc1cc(C(F)(F)F)ccc1F [Example 221, N-{4-[4-amino-7-(3-morpholin-4-ylpropyl)pyrrolo[2,1-f][1,2,4]triazin-5-yl]-2-methylphenyl}-N′-[2-fluoro-5-(trifluoromethyl)phenyl]urea]	< 10
Nc1ncnn2c(CN3CCCOCC3)cc(-c3ccc(NC(=O)Nc4cc(C(F)(F)F)ccc4F)cc3)c12 [Example 167, N-{4-[4-amino-7-(1,4-oxazepan-4-ylmethyl)pyrrolo[2,1-f][1,2,4]triazin-5-yl]phenyl}-N′-[2-fluoro-5-(trifluoromethyl)phenyl]urea]	< 10
Nc1ncnn2c(CN3CCOCC3)cc(-c3ccc(NC(=O)Nc4cccc(C(F)(F)F)c4)nc3)c12 [Example 20, N-{5-[4-amino-7-(morpholin-4-ylmethyl)pyrrolo[2,1-f][1,2,4]triazin-5-yl]pyridin-2-yl}-N′-[3-(trifluoromethyl)phenyl]urea]	< 10
Nc1ncnn2c(C3CCN(CCO)CC3)cc(-c3ccc(NC(=O)Nc4cc(C(F)(F)F)ccc4F)c(F)c3)c12 [Example 116, N-(4-4-amino-7-[1-(2-hydroxyethyl)piperidin-4-yl]pyrrolo[2,1-f][1,2,4]triazin-5-yl-2-fluorophenyl)-N′-[2-fluoro-5-(trifluoromethyl)phenyl]urea]	< 10
Nc1ncnn2c(CN3CCOCC3)cc(-c3ccc(NC(=O)Nc4cc(C(F)(F)F)ccc4F)nc3)c12 [Example 9, N-{5-[4-amino-7-(morpholin-4-ylmethyl)pyrrolo[2,1-f][1,2,4]triazin-5-yl]pyridin-2-yl}-N′-[2-fluoro-5-(trifluoromethyl)phenyl]urea]	< 10
Nc1ncnn2c(CCCN3CCOCC3)cc(-c3cc(F)c(NC(=O)Nc4cc(C(F)(F)F)ccc4F)cc3F)c12 [Example 190, N-{4-[4-amino-7-(3-morpholin-4-ylpropyl)pyrrolo[2,1-f][1,2,4]triazin-5-yl]-2,5-difluorophenyl}-N′-[2-fluoro-5-(trifluoromethyl)phenyl]urea]	< 10
CC(C)(C)c1ccnc(NC(=O)Nc2ccc(-c3cc(CN4CCOCC4)n4ncnc(N)c34)cc2)c1 [Example 53, N-{4-[4-amino-7-(morpholin-4-ylmethyl)pyrrolo[2,1-f][1,2,4]triazin-5-yl]phenyl}-N′-(4-tert-butylpyridin-2-yl)urea]	< 10
Nc1ncnn2c(CN3CCOCC3)cc(-c3ccc(NC(=O)Nc4ccc(F)c(C(F)(F)F)c4)nc3)c12 [Example 18, N-{5-[4-amino-7-(morpholin-4-ylmethyl)pyrrolo[2,1-f][1,2,4]triazin-5-yl]pyridin-2-yl}-N′-[4-fluoro-3-(trifluoromethyl)phenyl]urea]	< 10
CC(=O)N1CCC(c2cc(-c3ccc(NC(=O)Nc4cc(C(F)(F)F)ccn4)c(F)c3)c3c(N)ncnn23)C1 (stereo not drawn) [Example 205, N-{4-[7-(1-acetylpyrrolidin-3-yl)-4-aminopyrrolo[2,1-f][1,2,4]triazin-5-yl]-2-fluorophenyl}-N′-[4-(trifluoromethyl)pyridin-2-yl]urea]	< 10
COCCN1CCC(c2cc(-c3ccc(NC(=O)Nc4cc(C(F)(F)F)ccc4F)c(Cl)c3)c3c(N)ncnn23)CC1 [Example 241, N-(4-{4-amino-7-[1-(2-methoxyethyl)piperidin-4-yl]pyrrolo[2,1-f][1,2,4]triazin-5-yl}-2-chlorophenyl)-N′-[2-fluoro-5-(trifluoromethyl)phenyl]urea]	< 10
Nc1ncnn2c(C3CCN(CC(=O)O)CC3)cc(-c3ccc(NC(=O)Nc4cc(C(F)(F)F)ccc4F)c(F)c3)c12 [Example 119, [4-(4-amino-5-3-fluoro-4-[([2-fluoro-5-(trifluoromethyl)-phenyl]aminocarbonyl)amino]phenylpyrrolo[2,1-f][1,2,4]triazin-7-yl)piperidin-1-yl]acetic acid]	< 10
COc1cc(-c2cc(CN3CCOCC3)n3ncnc(N)c23)ccc1NC(=O)Nc1cc(C(C)(C)C)no1 [Example 30, N-{4-[4-amino-7-(morpholin-4-ylmethyl)pyrrolo[2,1-f][1,2,4]triazin-5-yl]-2-methoxyphenyl}-N′-(3-tert-butylisoxazol-5-yl)urea]	10 to 100

same assay, conditions: upper bound of the bin 'greater than 100 nM but less than 1 μM' (lower bound in E1)

IC50 [nM]	Structure (SMILES)
< 1000	Nc1ncnn2c(CN3CCOCC3)cc(-c3ccc(NC(=O)Nc4ccc(F)cn4)cc3)c12 [Example 55, N-{4-[4-amino-7-(morpholin-4-ylmethyl)pyrrolo[2,1-f][1,2,4]-triazin-5-yl]phenyl}-N′-(5-fluoropyridin-2-yl)urea]
< 1000	CC(C)(C)OC(=O)N1CCC(c2cc(-c3ccc(NC(=O)Nc4cc(C(F)(F)F)ccc4F)c(F)c3)c3c(N)ncnn23)C1 (stereo not drawn) [Example 198, tert-butyl 3-{4-amino-5-[3-fluoro-4-({[2-fluoro-5-(trifluoromethyl)phenyl]carbamoyl}amino)phenyl]pyrrolo[2,1-f][1,2,4]triazin-7-yl}pyrrolidine-1-carboxylate]
